From patent US20030022820A1, “IN VIVO ACTIVATION OF TUMOR-SPECIFIC CYTOTOXIC T CELLS” (priority 1995, published 2003)

What was measured:
A2.1/K^b-Tg mice = test: Peptide priming of A2.1/K^b-Tg mice, lytic activity of peptide-specific CTL; type: in vivo
HLA-A2.1 = HLA-A2.1 (Homo sapiens, UniProt P04439, D140Y/D185E/D98H/E176V/E277Q/G131W/G231S/I119V/I121R/I166T/I218V/L300P/L318F/N151K/N90K/P208A/P217A/Q86G/Q94H/R138H/R169H/T345S); test: Competition assay for peptide binding to HLA-A2.1 (inhibition of A clone 12 lysis of M1-pulsed EA2 targets)
[1] = system: A2.1/K^b×CD8 or A2.1 transgenic (Tg) mice; test: Immunization of transgenic mice with Her-2/neu peptides, cytotoxicity against peptide-pulsed T2-A2.1/K^b; type: in vivo; conditions: A2.1/K^b×CD8 or A2.1 Tg mice
Method: A2.1/K^b×CD8 and/or A2.1 transgenic mice were immunized with each of the peptides listed in Table 6 to determine if they could stimulate A2.1-restricted CTL. Mice were immunized with a mixture of 100 mg of the Her-2/neu peptide with 120 mg “helper” peptide in 100 ml Incomplete Freund's Adjuvant (IFA).
A2.1/K^b×CD8 or A2.1 lipopolysaccharide (LPS) -blasts were prepared as stimulators for in vitro restimulation of spleen cells from immunized mice. These were prepared by incubating splenocytes from A2/K^b or A2.1 mice in complete RPMI containing 25 mg/ml LPS and 7 mg/ml dextran sulfate at 1.5×10^6 cells/ml in a total volume of 30 ml for 3 days. […] Six days following in vitro restimulation, the CTL populations were assayed for lytic activity against T2-A2/K^b target cells preincubated with the peptide used for stimulation (15 mM). The resultant Her-2/neu peptide-specific CTL populations were maintained in vitro by weekly restimulation. […]
Spleen cells from injected animals were restimulated in vitro with irradiated syngeneic cells pulsed with the peptide used for in vivo priming. Immunogenicity was evaluated by assaying these cultured cells for cytotoxicity against T2-A2.1/K^b target cells pulsed with the priming peptide. […]

BT549 = test: Cytotoxicity assay, lysis of human tumors by H3 and H7 specific CTL; type: cell-based; conditions: Breast, A2 +
Method: (§1) […] target cells were incubated at 37° C. with […] of sodium ^51Cr chromate for 90 minutes in the presence or absence of specific peptide. Cells were washed three times and resuspended in 5% RPMI. For the assay, […] ^51Cr-labeled target cells were incubated with different concentrations of effector cells in a final volume of […] in U-bottomed 96-well plates. Supernatants were removed after 4-7 hrs at 37° C., and the percent specific lysis was determined by the following formula: [formula]
(§2) Tumor cells were preincubated for 24 hours prior to the assay in media supplemented with γ-interferon (γ-IFN, 20 ng/ml) plus tumor necrosis factor-α (TNF-α, 3 ng/ml). It is known that such pretreatment of tumor cells increases the expression of MHC I and adhesion molecules such as ICAM I on the surface of the cell thus enhancing their sensitivity to lysis by CTL. (See, e.g., Fisk, et al., Lympho. & Cytokine Res. 13: 125-131 (1994); Fady, et al., Cancer Immunol. Immunother. 37: 329-336 (1993).)

CASKI = test: as above; type: cell-based; conditions: Cervix, A2 +, Her-2 +
Method: as §1, §2

Hep-G2 = test: as above; type: cell-based; conditions: Hepatoma, A2 +
Method: as §1, §2

LG-2 = test: as above; type: cell-based; conditions: EBV-trans., A2 +, Her-2 −
Method: as §1, §2

MCF-7 = test: as above; type: cell-based; conditions: Breast, A2 +
Method: as §1, §2

MDA.M8231 = test: as above; type: cell-based; conditions: Breast, A2 +
Method: as §1, §2

NCI.H1355 = test: as above; type: cell-based; conditions: Lung, A2 +
Method: as §1, §2

OVCAR-5 = test: as above; type: cell-based; conditions: Ovarian, A2 +, Her-2 +
Method: as §1, §2

SAOS.175 = test: as above; type: cell-based; conditions: Osteosarcoma, A2 +, Her-2 +
Method: as §1, §2

SKMEL-5 = test: as above; type: cell-based; conditions: Melanoma, A2 +, Her-2 +
Method: as §1, §2

ST486 = test: as above; type: cell-based; conditions: Lymphoma, A2 +, Her-2 −
Method: as §1, §2

SV80 = test: as above; type: cell-based; conditions: Fibroblast, A2 +, Her-2 −
Method: as §1, §2

SW480 = test: as above; type: cell-based; conditions: Colon, A2 +
Method: as §1, §2

T98G = test: as above; type: cell-based; conditions: Glioblastoma, A2 +, Her-2 +
Method: as §1, §2

U2-OS = test: as above; type: cell-based; conditions: Osteosarcoma, A2 +, Her-2 +
Method: as §1, §2

U87G = test: as above; type: cell-based; conditions: Glioblastoma, A2 +
Method: as §1, §2

JY = test: as above; type: cell-based; parameters: scale not given here; conditions: Lymphoma, A2 +, Her-2 −
Method: as §1, §2

MALME-3M = test: as above; type: cell-based; parameters: scale not given here; conditions: Melanoma, A2 +, Her-2 +
Method: as §1, §2

MDA.MB435 = test: as above; type: cell-based; parameters: scale not given here; conditions: Breast, A2 −, Her-2 +
Method: as §1, §2

[2] = E:T 60:1, T2A2/K^b targets pulsed with two mg of peptide, highest of at least three individual mice
[3] = peptide-priming of A2.1/K^b-Tg mice
[4] = + CYT (γ-IFN 20 ng/ml plus TNF-α 3 ng/ml, 24 hours)

In the case of LLPENNVLS [hu-wt-p53: 25-33], the “Lytic Activity by Peptide-Specific CTL After Priming of A2.1/K^b-Tg Mice [Specific 51Cr release (%)]” value (shortened to “Lytic Activity … [Specific 51Cr release (%)]”) (A2.1/K^b-Tg mice; [2]) is reported as 3%.

In the case of LLPENNVLSPL [hu-wt-p53: 25-35], the “A2.1-binding activity / affinity, in words” value (HLA-A2.1) is reported as “high affinity”, the “Lytic Activity … [Specific 51Cr release (%)]” value (A2.1/K^b-Tg mice; [2]) is reported as 47% and the “A2.1/K^b-restricted peptide-specific CTL response, in words” value (A2.1/K^b-Tg mice; [3]) is reported as “detectable”.

With LMLSPDDIEQ [hu-wt-p53: 43-52] the “Lytic Activity … [Specific 51Cr release (%)]” value (A2.1/K^b-Tg mice; [2]) was 3%.

For NLLGRNSFEV [hu-wt-p53: 263-272], the “Lytic Activity … [Specific 51Cr release (%)]” value (A2.1/K^b-Tg mice; [2]) was 3%.

NTFRHSVVV [hu-wt-p53: 210-218] was tested, and the “Lytic Activity … [Specific 51Cr release (%)]” value (A2.1/K^b-Tg mice; [2]) was 6%.

With PLDGEYFTL [hu-wt-p53: 322-330] the “A2.1-binding activity / affinity, in words” value (HLA-A2.1) was “intermediate”, the “Lytic Activity … [Specific 51Cr release (%)]” value (A2.1/K^b-Tg mice; [2]) was 0% and the “A2.1/K^b-restricted peptide-specific CTL response, in words” value (A2.1/K^b-Tg mice; [3]) was “lack of CTL responsiveness”.

With “RGYVYQGL [VSV-N: 52-59, reference compound]” the “(%) [inhibition of A2.1-binding of M1 (58-66)]” value (HLA-A2.1) was 4%.

RMPEAAPPV [hu-wt-p53: 65-73] was tested, and the “A2.1-binding activity / affinity, in words” value (HLA-A2.1) was “high affinity”, the “Lytic Activity … [Specific 51Cr release (%)]” value (A2.1/K^b-Tg mice; [2]) was 85% and the “A2.1/K^b-restricted peptide-specific CTL response, in words” value (A2.1/K^b-Tg mice; [3]) was “detectable”.

In the case of STPPPGTRV [hu-wt-p53: 149-157], the “A2.1-binding activity / affinity, in words” value (HLA-A2.1) is reported as “intermediate affinity”, the “A2.1/K^b-restricted peptide-specific CTL response, in words” value (A2.1/K^b-Tg mice; mouse, in vivo) is reported as “detectable” and the “Lytic Activity … [Specific 51Cr release (%)]” value (A2.1/K^b-Tg mice; mouse, in vivo) is reported as 91%.

In the case of VAPAPAAPT [hu-wt-p53: 73-81], the “Lytic Activity … [Specific 51Cr release (%)]” value (A2.1/K^b-Tg mice; [2]) is reported as 0%.

With VLSPLPSQA [hu-wt-p53: 31-39] the “Lytic Activity … [Specific 51Cr release (%)]” value (A2.1/K^b-Tg mice; [2]) was 3%.

VLSPLPSQAM [hu-wt-p53: 31-40] was tested, and the “Lytic Activity … [Specific 51Cr release (%)]” value (A2.1/K^b-Tg mice; [2]) was 0%.

In the case of VMAGVGSPYV [Peptide H7], the “ability to stimulate a CTL response in Tg mice, in words” value [1] is reported as “able to stimulate a CTL response”, the “Killing of Tumors Expressing Her-2/neu” value (BT549; [4]) is reported as 36 and the “Killing of Tumors Expressing Her-2/neu” value (BT549; without cytokines) is reported as 2. The “Killing of Tumors Expressing Her-2/neu” value (CASKI; [4]) was 20, the “Killing of Tumors Expressing Her-2/neu” value (CASKI; without cytokines) was 9 and the “Killing of Tumors Expressing Her-2/neu” value (Hep-G2; [4]) was 29. For the same sequence, the “Killing of Tumors Expressing Her-2/neu” value (Hep-G2; without cytokines) was 4, the “Killing of Tumors Expressing Her-2/neu” value (LG-2; [4]) was 3 and the “Killing of Tumors Expressing Her-2/neu” value (LG-2; without cytokines) was 1. For the same sequence, the “Killing of Tumors Expressing Her-2/neu” value (MCF-7; [4]) was 40, the “Killing of Tumors Expressing Her-2/neu” value (MCF-7; without cytokines) was 7 and the “Killing of Tumors Expressing Her-2/neu” value (MDA.M8231; [4]) was 89. For the same sequence, the “Killing of Tumors Expressing Her-2/neu” value (MDA.M8231; without cytokines) was 26, the “Killing of Tumors Expressing Her-2/neu” value (NCI.H1355; [4]) was 62 and the “Killing of Tumors Expressing Her-2/neu” value (NCI.H1355; without cytokines) was 13. For the same sequence, the “Killing of Tumors Expressing Her-2/neu” value (OVCAR-5; [4]) was 23, the “Killing of Tumors Expressing Her-2/neu” value (OVCAR-5; without cytokines) was 13 and the “Killing of Tumors Expressing Her-2/neu” value (SAOS.175; [4]) was 35. The “Killing of Tumors Expressing Her-2/neu” value (SAOS.175; without cytokines) was 27, the “Killing of Tumors Expressing Her-2/neu” value (SKMEL-5; [4]) was 40 and the “Killing of Tumors Expressing Her-2/neu” value (SKMEL-5; without cytokines) was 16. The “Killing of Tumors Expressing Her-2/neu” value (ST486; [4]) was 8, the “Killing of Tumors Expressing Her-2/neu” value (ST486; without cytokines) was 5 and the “Killing of Tumors Expressing Her-2/neu” value (SV80; [4]) was 2. For the same sequence, the “Killing of Tumors Expressing Her-2/neu” value (SV80; without cytokines) was 2, the “Killing of Tumors Expressing Her-2/neu” value (SW480; [4]) was 17 and the “Killing of Tumors Expressing Her-2/neu” value (SW480; without cytokines) was 2. The “Killing of Tumors Expressing Her-2/neu” value (T98G; [4]) was 93, the “Killing of Tumors Expressing Her-2/neu” value (T98G; without cytokines) was 29 and the “Killing of Tumors Expressing Her-2/neu” value (U2-OS; [4]) was 62. For the same sequence, the “Killing of Tumors Expressing Her-2/neu” value (U2-OS; without cytokines) was 30, the “Killing of Tumors Expressing Her-2/neu” value (U87G; [4]) was 1 and the “Killing of Tumors Expressing Her-2/neu” value (U87G; without cytokines) was 1. The “Killing of Tumors Expressing Her-2/neu” value (JY; [4]) was 2, the “Killing of Tumors Expressing Her-2/neu” value (JY; without cytokines) was 4 and the “Killing of Tumors Expressing Her-2/neu” value (MALME-3M; [4]) was 14. For the same sequence, the “Killing of Tumors Expressing Her-2/neu” value (MALME-3M; without cytokines) was 4, the “Killing of Tumors Expressing Her-2/neu” value (MDA.MB435; [4]) was 1 and the “Killing of Tumors Expressing Her-2/neu” value (MDA.MB435; without cytokines) was 1.
